The values that follow come from patent US9108960B2 (priority 2011, dated 2015).

The test system of one experiment is M. tuberculosis Rif^R. Kind of experiment: Antimycobacterial assay, MIC by broth microdilution / Nitrate Reductase Assay. Conditions: Mycobacterium tuberculosis, read-out: MIC M. tuberculosis Rif^R. The format is cell-based. In general terms: Broth dilution looks for growth in wells or tubes with falling amounts of substance.
The next experiment concerns M. tuberculosis XDR-1. Described as above. The format is cell-based. Conditions: Mycobacterium tuberculosis, XDR1, read-out: MIC M. tuberculosis XDR-1.
Experiment [1] deals with M. tuberculosis H37Rv. Described as above. It counts as cell-based. Conditions: Mycobacterium tuberculosis, exposure period 3-4 days.
The test system of experiment [2] is M. tuberculosis H37Rv. Conditions: literature values (footnote *); cited from earlier work.

Values after ≈ are worked out from the molar mass of the structure shown.

For `O=C(Nc1ccc(N2CCC(c3n[nH]c(=O)o3)CC2)cc1)c1ccc([N+](=O)[O-])o1` [Compound 8a, N2-4-[4-(5-Oxo-4,5-dihydro-1,3,4-oxadiazol-2-yl)piperidino]phenyl-5-nitro-2-furamide], the MIC came out at 1 µg/mL (≈ 2.5 µM) with M. tuberculosis Rif^R, 4 µg/mL (≈ 10 µM) in the experiment on M. tuberculosis XDR-1 and 1 µg/mL (≈ 2.5 µM) against M. tuberculosis H37Rv [1].
`CCn1nc(C2CCN(c3ccc(NC(=O)c4ccc([N+](=O)[O-])o4)cc3)CC2)oc1=O` [Compound 8c, N2-4-[4-(4-Ethyl-5-oxo-4,5-dihydro-1,3,4-oxadiazol-2-yl)piperidino]phenyl-5-nitro-2-furamide]: the MIC with M. tuberculosis Rif^R was 2 µg/mL (≈ 4.68 µM); in the experiment with M. tuberculosis XDR-1, 4 µg/mL (≈ 9.36 µM); against M. tuberculosis H37Rv [1], 1 µg/mL (≈ 2.34 µM).
In the same order, the values of `O=C(Nc1ccc(N2CCC(c3n[nH]c(=O)o3)CC2)c(F)c1)c1ccc([N+](=O)[O-])o1` [Compound 8e, N2-3-Fluoro-4-[4-(5-oxo-4,5-dihydro-1,3,4-oxadiazol-2-yl)piperidino]phenyl-5-nitro-2-furamide] are 2 µg/mL (≈ 4.79 µM), 8 µg/mL (≈ 19.2 µM) and 2 µg/mL (≈ 4.79 µM).
On to `Cn1nc(C2CCN(c3ccc(NC(=O)c4ccc([N+](=O)[O-])o4)cc3F)CC2)oc1=O` [Compound 8f, N2-3-Fluoro-4-[4-(4-methyl-5-oxo-4,5-dihydro-1,3,4-oxadiazol-2-yl)piperidino]phenyl-5-nitro-2-furamide], for which the MIC with M. tuberculosis Rif^R worked out at 2 µg/mL (≈ 4.64 µM); in the experiment on M. tuberculosis XDR-1 it was 4 µg/mL (≈ 9.27 µM); in the experiment with M. tuberculosis H37Rv [1], 1 µg/mL (≈ 2.32 µM).
For `CCn1nc(C2CCN(c3ccc(NC(=O)c4ccc([N+](=O)[O-])o4)cc3F)CC2)oc1=O` [Compound 8g, N2-4-[4-(4-Ethyl-5-oxo-4,5-dihydro-1,3,4-oxadiazol-2-yl)piperidino]-3-fluorophenyl-5-nitro-2-furamide], the values for the MIC with M. tuberculosis Rif^R, in the experiment with M. tuberculosis XDR-1 and in the experiment with M. tuberculosis H37Rv [1] were 1 µg/mL (≈ 2.25 µM), 2 µg/mL (≈ 4.49 µM) and 0.5 µg/mL (≈ 1.12 µM), respectively.
Consider `O=c1[nH]nc(C2CCN(c3ccc(/N=C/c4ccc([N+](=O)[O-])o4)cc3)CC2)o1` [Compound 9a, 5-[1-(4-[(E)-1-(5-Nitro-2-furyl)methylidene]aminophenyl)-4-piperidyl]-2,3-dihydro-1,3,4-oxadiazol-2-one], for which the minimum inhibitory concentration (MIC) was 4 µg/mL (≈ 10.4 µM) with M. tuberculosis Rif^R, 4 µg/mL (≈ 10.4 µM) in the experiment on M. tuberculosis XDR-1 and 2 µg/mL (≈ 5.22 µM) in the experiment with M. tuberculosis H37Rv [1].
Take `Cn1nc(C2CCN(c3ccc(/N=C/c4ccc([N+](=O)[O-])o4)cc3)CC2)oc1=O` [Compound 9b, 3-Methyl-5-[1-(4-[(E)-1-(5-nitro-2-furyl)methylidene]aminophenyl)-4-piperidyl]-2,3-dihydro-1,3,4-oxadiazol-2-one]: the values for the MIC with M. tuberculosis Rif^R, with M. tuberculosis XDR-1 and in the experiment on M. tuberculosis H37Rv [1] were 4 µg/mL (≈ 10.1 µM), 8 µg/mL (≈ 20.1 µM) and 2 µg/mL (≈ 5.03 µM), respectively.
As for `CCn1nc(C2CCN(c3ccc(/N=C/c4ccc([N+](=O)[O-])o4)cc3)CC2)oc1=O` [Compound 9c, 3-Ethyl-5-[1-(4-[(E)-1-(5-nitro-2-furyl)methylidene]aminophenyl)-4-piperidyl]-2,3-dihydro-1,3,4-oxadiazol-2-one], the MIC was determined as 2 µg/mL (≈ 4.86 µM) with M. tuberculosis Rif^R, 4 µg/mL (≈ 9.72 µM) in the experiment with M. tuberculosis XDR-1 and 1 µg/mL (≈ 2.43 µM) in the experiment with M. tuberculosis H37Rv [1].
As for `O=c1oc(C2CCN(c3ccc(/N=C/c4ccc([N+](=O)[O-])o4)cc3)CC2)nn1Cc1ccccc1` [Compound 9d, 3-Benzyl-5-[1-(4-[(E)-1-(5-nitro-2-furyl)methylidene]aminophenyl)-4-piperidyl]-2,3-dihydro-1,3,4-oxadiazol-2-one], the MIC is 4 µg/mL (≈ 8.45 µM) in the experiment on M. tuberculosis Rif^R, 8 µg/mL (≈ 16.9 µM) with M. tuberculosis XDR-1 and 2 µg/mL (≈ 4.22 µM) against M. tuberculosis H37Rv [1].
Turning to `O=c1[nH]nc(C2CCN(c3ccc(/N=C/c4ccc([N+](=O)[O-])o4)cc3F)CC2)o1` [Compound 9e, 5-[1-(2-Fluoro-4-[(E)-1-(5-nitro-2-furyl)methylidene]aminophenyl)-4-piperidyl]-2,3-dihydro-1,3,4-oxadiazol-2-one], the values for the MIC in the experiment with M. tuberculosis Rif^R, in the experiment with M. tuberculosis XDR-1 and against M. tuberculosis H37Rv [1] were 2 µg/mL (≈ 4.98 µM), 8 µg/mL (≈ 19.9 µM) and 2 µg/mL (≈ 4.98 µM), respectively.
As to `Cn1nc(C2CCN(c3ccc(/N=C/c4ccc([N+](=O)[O-])o4)cc3F)CC2)oc1=O` [Compound 9f, 5-[1-(2-Fluoro-4-[(E)-1-(5-nitro-2-furyl)methylidene]aminophenyl)-4-piperidyl]-3-methyl-2,3-dihydro-1,3,4-oxadiazol-2-one], the results for the MIC in the experiment on M. tuberculosis Rif^R, with M. tuberculosis XDR-1 and in the experiment with M. tuberculosis H37Rv [1] were 4 µg/mL (≈ 9.63 µM), 8 µg/mL (≈ 19.3 µM) and 2 µg/mL (≈ 4.81 µM), respectively.
Consider `CCn1nc(C2CCN(c3ccc(/N=C/c4ccc([N+](=O)[O-])o4)cc3F)CC2)oc1=O` [Compound 9g, 3-Ethyl-5-[1-(2-fluoro-4-[(E)-1-(5-nitro-2-furyl)methylidene]aminophenyl)-4-piperidyl]-2,3-dihydro-1,3,4-oxadiazol-2-one], for which the MIC turned out to be 2 µg/mL (≈ 4.66 µM) in the experiment with M. tuberculosis Rif^R, 4 µg/mL (≈ 9.32 µM) with M. tuberculosis XDR-1 and 1 µg/mL (≈ 2.33 µM) in the experiment with M. tuberculosis H37Rv [1].
As to `O=c1oc(C2CCN(c3ccc(/N=C/c4ccc([N+](=O)[O-])o4)cc3F)CC2)nn1Cc1ccccc1` [Compound 9h, 3-Benzyl-5-[1-(2-fluoro-4-[(E)-1-(5-nitro-2-furyl)methylidene]aminophenyl)-4-piperidyl]-2,3-dihydro-1,3,4-oxadiazol-2-one], the minimal inhibitory concentration (MIC) in the experiment on M. tuberculosis Rif^R came out at 2 µg/mL (≈ 4.07 µM); in the experiment with M. tuberculosis XDR-1 it was 8 µg/mL (≈ 16.3 µM); against M. tuberculosis H37Rv [1], 2 µg/mL (≈ 4.07 µM).
With `O=c1[nH]nc(C2CCN(c3ccc(NCc4ccc([N+](=O)[O-])o4)cc3)CC2)o1` [Compound 10a, 5-[1-(4-[(5-Nitro-2-furyl)methyl]aminophenyl)-4-piperidyl]-2,3-dihydro-1,3,4-oxadiazol-2-one], the MIC was found to be 4 µg/mL (≈ 10.4 µM) in the experiment on M. tuberculosis Rif^R, 4 µg/mL (≈ 10.4 µM) in the experiment on M. tuberculosis XDR-1 and 1 µg/mL (≈ 2.59 µM) against M. tuberculosis H37Rv [1].
As for `Cn1nc(C2CCN(c3ccc(NCc4ccc([N+](=O)[O-])o4)cc3)CC2)oc1=O` [Compound 10b, 3-Methyl-5-[1-(4-[(5-nitro-2-furyl)methyl]aminophenyl)-4-piperidyl]-2,3-dihydro-1,3,4-oxadiazol-2-one], the MIC is 4 µg/mL (≈ 10 µM) in the experiment on M. tuberculosis Rif^R, 8 µg/mL (≈ 20 µM) in the experiment on M. tuberculosis XDR-1 and 2 µg/mL (≈ 5.01 µM) against M. tuberculosis H37Rv [1].
In the same order, the values of `CCn1nc(C2CCN(c3ccc(NCc4ccc([N+](=O)[O-])o4)cc3)CC2)oc1=O` [Compound 10c, 3-Ethyl-5-[1-(4-[(5-nitro-2-furyl)methyl]aminophenyl)-4-piperidyl]-2,3-dihydro-1,3,4-oxadiazol-2-one] are 1 µg/mL (≈ 2.42 µM), 4 µg/mL (≈ 9.68 µM) and 1 µg/mL (≈ 2.42 µM).
On to `O=c1oc(C2CCN(c3ccc(NCc4ccc([N+](=O)[O-])o4)cc3)CC2)nn1Cc1ccccc1` [Compound 10d, 3-Benzyl-5-[1-(4-[(5-nitro-2-furyl)methyl]aminophenyl)-4-piperidyl]-2,3-dihydro-1,3,4-oxadiazol-2-one], for which the MIC in the experiment on M. tuberculosis Rif^R amounted to 2 µg/mL (≈ 4.21 µM); in the experiment on M. tuberculosis XDR-1 it was 8 µg/mL (≈ 16.8 µM); with M. tuberculosis H37Rv [1], 2 µg/mL (≈ 4.21 µM).
On to `O=c1[nH]nc(C2CCN(c3ccc(NCc4ccc([N+](=O)[O-])o4)cc3F)CC2)o1` [Compound 10e, 5-[1-(2-Fluoro-4-[(5-nitro-2-furyl)methyl]aminophenyl)-4-piperidyl]-2,3-dihydro-1,3,4-oxadiazol-2-one], for which the MIC in the experiment with M. tuberculosis Rif^R was found to be 2 µg/mL (≈ 4.96 µM); in the experiment with M. tuberculosis XDR-1 it was 8 µg/mL (≈ 19.8 µM); in the experiment on M. tuberculosis H37Rv [1] it was 2 µg/mL (≈ 4.96 µM).
As for `Cn1nc(C2CCN(c3ccc(NCc4ccc([N+](=O)[O-])o4)cc3F)CC2)oc1=O` [Compound 10f, 5-[1-(2-Fluoro-4-[(5-nitro-2-furyl)methyl]aminophenyl)-4-piperidyl]-3-methyl-2,3-dihydro-1,3,4-oxadiazol-2-one], the MIC in the experiment on M. tuberculosis Rif^R was determined as 8 µg/mL (≈ 19.2 µM); in the experiment on M. tuberculosis XDR-1, 16 µg/mL (≈ 38.3 µM); against M. tuberculosis H37Rv [1] it was 4 µg/mL (≈ 9.58 µM).
In the same order, the values of `CCn1nc(C2CCN(c3ccc(NCc4ccc([N+](=O)[O-])o4)cc3F)CC2)oc1=O` [Compound 10g, 3-Ethyl-5-[1-(2-fluoro-4-[(5-nitro-2-furyl)methyl]aminophenyl)-4-piperidyl]-2,3-dihydro-1,3,4-oxadiazol-2-one] are 4 µg/mL (≈ 9.27 µM), 4 µg/mL (≈ 9.27 µM) and 2 µg/mL (≈ 4.64 µM).
As to `O=c1oc(C2CCN(c3ccc(NCc4ccc([N+](=O)[O-])o4)cc3F)CC2)nn1Cc1ccccc1` [Compound 10h, 3-Benzyl-5-[1-(2-fluoro-4-[(5-nitro-2-furyl)methyl]aminophenyl)-4-piperidyl]-2,3-dihydro-1,3,4-oxadiazol-2-one], the results for the MIC with M. tuberculosis Rif^R, in the experiment with M. tuberculosis XDR-1 and against M. tuberculosis H37Rv [1] were 4 µg/mL (≈ 8.11 µM), 8 µg/mL (≈ 16.2 µM) and 2 µg/mL (≈ 4.05 µM), respectively.
Turning to `O=C(Nc1cccc(F)c1)c1ccc([N+](=O)[O-])o1` [Compound 11a, N2-(3-fluorophenyl)-5-nitro-2-furamide], the “MIC M. tuberculosis H37Rv” value in the experiment with M. tuberculosis H37Rv [2] was 0.12 µg/mL (≈ 0.48 µM).
In the case of `O=C(Nc1ccncc1)c1ccc([N+](=O)[O-])o1` [Compound 11b, N2-(4-pyridyl)-5-nitro-2-furamide], the “MIC M. tuberculosis H37Rv” value in the experiment with M. tuberculosis H37Rv [2] is 0.8 µg/mL (≈ 3.43 µM).
For the molecule `O=C(Nc1ccc(N2CCC(Cc3ccccc3)CC2)cc1)c1ccc([N+](=O)[O-])o1` [Compound 11c, N2-[4-(4-benzylpiperidino)phenyl]-5-nitro-2-furamide], the “MIC M. tuberculosis H37Rv” value with M. tuberculosis H37Rv [2] was 3.12 µg/mL (≈ 7.7 µM).
For the molecule `CC1CCCN(Cn2nc(-c3ccncc3)oc2=O)C1` (stereo not shown) [Compound 12a, 3-[(3-methylpiperidino)methyl]-5-(4-pyridyl)-2,3-dihydro-1,3,4-oxadiazol-2-one], the “MIC M. tuberculosis H37Rv” value in the experiment with M. tuberculosis H37Rv [2] was 3.13 µg/mL (≈ 11.4 µM).
Regarding `CN1CCN(Cn2nc(-c3ccncc3)oc2=O)CC1` [Compound 12b, 3-[(4-methylpiperazino)methyl]-5-(4-pyridyl)-2,3-dihydro-1,3,4-oxadiazol-2-one], the “MIC M. tuberculosis H37Rv” value in the experiment on M. tuberculosis H37Rv [2] was 1.25 µg/mL (≈ 4.54 µM).
For the molecule `O=c1oc(-c2ccncc2)nn1CN1CCC(Cc2ccccc2)CC1` [Compound 12c, 3-[(4-benzylpiperidino)methyl]-5-(4-pyridyl)-2,3-dihydro-1,3,4-oxadiazol-2-one], the “MIC M. tuberculosis H37Rv” value in the experiment on M. tuberculosis H37Rv [2] is 2.5 µg/mL (≈ 7.13 µM).
In the experiment with M. tuberculosis H37Rv [1], `NNC(=O)c1ccncc1` [Isoniazid, reference compound] returned an MIC of 2.5 µg/mL (≈ 18.2 µM).
`CO[C@H]1/C=C/O[C@@]2(C)Oc3c(C)c(O)c4c(O)c(c(/C=N/N5CCN(C)CC5)c(O)c4c3C2=O)NC(=O)/C(C)=C\C=C\[C@H](C)[C@H](O)[C@@H](C)[C@@H](O)[C@@H](C)[C@H](OC(C)=O)[C@@H]1C` [Rifampicin, reference compound]: the MIC was above 128 µg/mL in the experiment on M. tuberculosis Rif^R, 2 µg/mL (≈ 2.43 µM) in the experiment on M. tuberculosis XDR-1 and 0.5 µg/mL (≈ 0.608 µM) in the experiment with M. tuberculosis H37Rv [1].

Usually MIC stands for the lowest concentration that inhibits growth of the organism.
